Where two headings read alike, the source gives them in different places. Marks after values point to notes of the source that are not given here.
Experiments:
mice [1] = test system: mice; set-up: method as in PMID 11234340, PMID 12484538, PMID 15652370; conditions: series 1, cited from earlier work
mice [2] = test system: mice; set-up: method as in PMID 11234340, PMID 12484538, PMID 15652370; conditions: series 1, cited from earlier work; remark: listed apart in the source
mice [3] = conditions: compounds obtained previously (series 1 and 2); cited from earlier work
mice [4] = test: Spontaneous locomotor activity in mice (photoresistor actometers); format: in vivo; conditions: for ED50: confidence limits in parentheses, read-out: ED50 (mg/kg) ± SEM, spontaneous locomotor activity; for Number of impulses ± SEM (30min): i.p.
Protocol: (§1) The experiments were carried out on male albino Swiss mice (body weight 18–26 g). All of the animals were housed at constant humidity (60%) and temperature (25 °C) and kept on a 12 h light/dark cycle. Animals were fed a standard pellet diet with free access to tap water. All procedures were conducted according to Animal Care and Use Committee guidelines, and approved by the Ethical Committee of Jagiellonian University, Kraków.
(§2) Control and experimental groups consisted of 6–8 animals each. The investigated compounds were administered intraperitoneally as a suspension in 0.5% methylcellulose in a constant volume of 10 mL/kg.
Spontaneous locomotor activity in mice was measured in circular photoresistoractometers (32 cm in diameter). […] Thirty minutes after the injection of the investigated compounds, mice were placed in the actometers for 30 min. Each crossing of the light beam was recorded automatically. The amount of impulses was noted after 30 min.

mice [5] = test: “Writhing” test in mice (phenylbenzoquinone); format: in vivo; conditions: for ED50: Mus musculus, ip, read-out: ED50 (mg/kg) ± SEM, writhing test
Protocol: as §1, §2
(§3) The statistical significance was calculated using a Student’s t-test. The ED50 values and their confidence limits were calculated according to the method of Litchfield and Wilcoxon.
(§4) Pain reactivity was measured in two tests: “hot plate” test (according to the method of Eddy and Leimbach) and “writhing” test in mice (according to Hendershot and Forsaith).
Then, after 25 min, the irritant (phenylbenzoquinone, 0.02% solution, ethanol-water, 5:95) was also administered intraperitoneally in a constant volume of 0.25 mL. Five min after the application of the irritant,a 10 min long period of observation started, in which the number of writhing episodes was counted.
The analgesic effect of individual doses was expressed in percent:(1) % Analgesic effect=100−∑ of writing incidents in experimental group/∑ of writhing incidents in control group×100

mice [6] = test: “Hot plate” test in mice; format: in vivo; conditions: for change in vivo at 100 mg/kg / change in vivo at 200 mg/kg / Time of Reaction to Pain Stimulus (s) ± SEM: hot plate; for change in vivo at 100 mg/kg / change in vivo at 200 mg/kg / Time of Reaction to Pain Stimulus (s) ± SEM / analgesic effect in the hot plate test (in words): mice; for analgesic effect in the hot plate test (in words): applied doses (Table 4)
Protocol: as §1, §2, §3, §4
Animals were placed individually on the metal plate, heated to 55 ± 1 °C. The latency time (s) to the pain reaction (licking of the hind paws or jumping) was recorded by a stop-watch. A cutoff time of 45 s was used to prevent tissue damage.

in vivo = format: in vivo; conditions: male, albino Swiss, mouse, in vivo, ip; mice, intraperitoneal, mortality after 24 h; confidence limits in parentheses
Protocol: as §1, §2

[7] = Mus musculus, ip, dose 25 mg/kg, read-out: Degree of motor inhibition (%)
[8] = Mus musculus, ip, dose 50 mg/kg, read-out: Degree of motor inhibition (%)
[9] = Mus musculus, ip, 0.5 h, dose 100 mg/kg, read-out: Prolonged Time (%)
[10] = Mus musculus, ip, 0.5 h, dose 200 mg/kg, read-out: Prolonged Time (%)
[11] = Mus musculus, ip, dose 100 mg/kg, read-out: Degree of motor inhibition (%)
[12] = confidence limits in parentheses
[13] = Mus musculus, ip, dose 200 mg/kg, read-out: Degree of motor inhibition (%)
[14] = Mus musculus, ip, 0.5 h, read-out: Prolonged Time (%)

| Structure (SMILES) | ED50 (mice [4]; Mus musculus, ip) [mg/kg] | inhibition at 25 mg/kg (mice [4]; [7]) [%] | inhibition at 50 mg/kg (mice [4]; [8]) [%] | Number of impulses ± SEM (30min) (mice [4]; dose 25 mg/kg) | Number of impulses ± SEM (30min) (mice [4]; dose 50 mg/kg) | Mean no. of writhing ± SEM (mice [5]; i.p., dose 12.5 mg/kg) | Mean no. of writhing ± SEM (mice [5]; i.p., dose 25 mg/kg) | change in vivo at 100 mg/kg (mice [6]; [9]) [%] | change in vivo at 200 mg/kg (mice [6]; [10]) [%] | Time of Reaction to Pain Stimulus (s) ± SEM (mice [6]; dose 100 mg/kg) [s] | Time of Reaction to Pain Stimulus (s) ± SEM (mice [6]; dose 200 mg/kg) [s] | LD50 at 24 h (in vivo) [mg/kg] | inhibition at 100 mg/kg (mice [4]; [11]) [%] | Number of impulses ± SEM (30min) (mice [4]; dose 100 mg/kg) | ED50 (mice [5]; [12]) [mg/kg] | Mean no. of writhing ± SEM (mice [5]; i.p., dose 50 mg/kg) | Mean no. of writhing ± SEM (mice [5]; i.p., dose 100 mg/kg) | further results |
| --- | --- | --- | --- | --- | --- | --- | --- | --- | --- | --- | --- | --- | --- | --- | --- | --- | --- | --- |
| COc1nc(C)cc2c1C(=O)N(CN1CCOCC1)C2=O [Compound 1Q] |  |  |  |  |  |  |  |  |  |  |  |  |  |  |  |  |  | Thiopental Anesthesia % Prolong. (mice [1]; dose 44 mg/kg): 141.7 ** %; % Inh. of locomotor activity (mice [2]; dose 44 mg/kg): 42.65 * %; ED50, writhing test (mice [3]): 13.66 mg/kg |
| COc1ccccc1N1CCN(CCCCN2C(=O)c3cc(C)nc(OC)c3C2=O)CC1 [Compound 1R] |  |  |  |  |  |  |  |  |  |  |  |  |  |  |  |  |  | Thiopental Anesthesia % Prolong. (mice [1]; dose 50 mg/kg): 159.12%; Thiopental Anesthesia % Prolong. (mice [1]; dose 100 mg/kg): 255.97%; % Inh. of locomotor activity (mice [2]; dose 100 mg/kg): 82.32 ** %; ED50, writhing test (mice [3]): 6.8 mg/kg |
| COc1nc(C)cc2c1C(=O)N(CCCCN1CCOCC1)C2=O [Compound 8, 4-methoxy-6-methyl-4-(N-morpholino)-butyl-1H-pyrrolo[3,4-c]pyridine-1,3-(2H)-dion] | 34.2 | 35.4 | 61.6 | 299 ± 59 | 178 ± 30 | 19.8 ± 2.1 | 6.2 ± 0.9 | 3.87 | 27.5 | 10.2 ± 1.8 | 12.2 ± 1.4 | > 2000 |  |  |  |  |  | inhibition at 5 mg/kg (mice [4]; Mus musculus, ip, dose 5 mg/kg, read-out: Degree of motor inhibition (%)): 18.1%; inhibition at 12.5 mg/kg (mice [4]; Mus musculus, ip, dose 12.5 mg/kg, read-out: Degree of motor inhibition (%)): 32.8%; Number of impulses ± SEM (30min) (mice [4]; dose 5 mg/kg): 387 ± 24; Number of impulses ± SEM (30min) (mice [4]; dose 12.5 mg/kg): 312 ±26; analgesic effect in the hot plate test (in words) (mice [6]): not statistically significant |
| CCOc1nc(C)cc2c1C(=O)N(CCN1CCN(c3ccccc3)CC1)C2=O [Compound 10] | 84 ± 5.1 | 49.2 | 55.1 | 224 ± 45 | 198 ± 54 |  | 7.9 ± 2.1 | 6.98 | 34.9 | 18.4 ± 1.7 | 23.2 ± 2.6 | > 2000 | 6.8 | 142 ± 29 | 15.8 ± 0.91 | 2.1 ± 0.6 | 0.9 ± 0.1 | analgesic effect in the hot plate test (in words) (mice [6]): not statistically significant |
| CCOc1nc(C)cc2c1C(=O)N(CCN1CCN(c3ccccc3OC)CC1)C2=O [Compound 12] | 85 ± 4.2 | 11.8 | 34.5 | 389 ± 54 | 289 ± 72 | 13.9 ± 2.3 | 9.7 ± 1.1 | 28.5 | 52.3 | 22.1 ± 2.7 | 26.2 ± 3.1 | > 2000 | 59.2 | 180 ± 41 | 14.9 ± 2.01 | 2.4 ± 0.3 | 1.9 ± 0.4 | inhibition at 200 mg/kg (mice [4]; [13]): 76.2%; Number of impulses ± SEM (30min) (mice [4]; dose 200 mg/kg): 105 ± 48 |
| COc1nc(C)cc2c1C(=O)N(CN1CCN(c3cccc(Cl)c3)CC1)C2=O [Compound 13] | 164 ± 28.7 |  | 7.93 |  | 406 ± 34 | 14.1 ± 1.0 | 5.9 ± 0.8 | 4.07 | 11.6 | 17.9 ± 2.4 | 19.2 ± 1.8 | > 2000 | 32.2 | 299 ± 49 | 14.8 | 3.8 ± 1.9 | 0.8 ± 0.1 | inhibition at 200 mg/kg (mice [4]; [13]): 59.6%; Number of impulses ± SEM (30min) (mice [4]; dose 200 mg/kg): 178 ± 32 |
| CN1CC[C@]23c4c5ccc(O)c4O[C@H]2[C@@H](O)C=C[C@H]3[C@H]1C5 [Morphine, reference compound] |  |  |  |  |  |  |  |  |  |  |  |  |  |  |  |  |  | ED50 (mg/kg) ± SEM, writhing test (mice [5]; i.p., confidence limits in parentheses): 2.44 mg/kg; Mean no. of writhing ± SEM (mice [5]; i.p., dose 1 mg/kg): 16.2 ± 3.51; Mean no. of writhing ± SEM (mice [5]; i.p., dose 3 mg/kg): 7.5 ± 2.9; Mean no. of writhing ± SEM (mice [5]; i.p., dose 10 mg/kg): 1.2 ± 0.8; change in vivo at 1 mg/kg (mice [6]; [14]): 33.8%; change in vivo at 3 mg/kg (mice [6]; [14]): 104%; change in vivo at 6 mg/kg (mice [6]; [14]): 111%; ED50 (mice [6]; Mus musculus, read-out: ED50, hot plate test): 2.55 mg/kg; Time of Reaction to Pain Stimulus (s) ± SEM (mice [6]; dose 1 mg/kg): 19.4 ± 2.1 s; Time of Reaction to Pain Stimulus (s) ± SEM (mice [6]; dose 3 mg/kg): 29.6 ± 6 s; Time of Reaction to Pain Stimulus (s) ± SEM (mice [6]; dose 6 mg/kg): 30.6 ± 3.9 s |

— PMC7764601 (Molecules, 2020)
